Laboratory results published in patent US20240398894A1, “ANGIOGENIC CONTROL, PREFERABLY COMBINED WITH GLYCAEMIC CONTROL” (BIOTEMPT B.V., priority 2021, published 2024).
Where a SMILES comes first, the peptide text is derived from it.

Key:
mTOR = settings: piglets; cited from earlier work
human CD4+ cells = experiment: Human CD4+ lymphocyte-migration assay (modified Boyden chamber); format: cell-based
Procedure: A: Synthetic human-C-peptide (1-31, having ERC-binding-motif LGGGPG) was tested in human CD4+ lymphocyte-migration assay together with negative and treatment controls: no C-peptide added, scrambled version of human C-peptide (1-31, lacking any xGxxPx motif) and pig-C-peptide (1-29, ˜74% similarity to human C-peptide but lacking any xGxxPx motif; alignment with human C-peptide shown herewith).
Freshly isolated human CD4+ cells were incubated for 3 h with the indicated C-peptide variants (10 nM) to assess the effect on cell migration in a modified Boyden chamber. Results are expressed as the mean±SEM, ****P<0.001 treatments vs. control.
B: Freshly isolated human CD4 cells were preincubated for 3 h with V14 peptide (10 μM) or lactose (10 mM) and then stimulated with C-peptide (1-31) for 3 H as indicated in (A). Results are expressed as the mean±SEM. *P<0.05, ****P<0.001 treatments vs. control, […] ###P<0.001 treatments vs. human C-peptide (1-31).

LPS-activity = settings: cited from earlier work
TNF-α and IL-6 = settings: rat, hemorrhagic shock; cited from earlier work
[1] = Distribution and elimination of intravenously injected [14C]-AQGV from mice; format: in vivo, male CD-1 mice
Procedure: The present study, which was conducted by TNO Biosciences, Utrechtseweg, Netherlands, was designed to provide data on the distribution and metabolism of [^14C]-AQGV (Ala-Gln-[1-^14C]Gly-Val) in male CD-1 mice following a single intravenous dose of 50 mg/kg. To this end, mice were sacrificed at 10, 30 and 60 minutes, and 6 and 24 hours after administration of radiolabeled AQGV, counts in various tissues were determined, and the radioactivity present in the urine and plasma were analyzed by HPLC.

[2] = tested on: human pulmonary microvascular endothelial cells; experiment: Microvascular angiogenesis (sprouting) assay in Matrigel; format: cell-based; settings: for angiogenic (core) activity in sprouting assay: human vascular endothelial cells, as demonstrated herein; for angiogenic activities (total tube length): Matrigel, increasing concentrations, t=24 h, data not shown
Procedure: Human pulmonary microvascular endothelial cells (Hpmec, HUVE, or other vascular EC, may also be used) were cultured in EBM-2 medium (Lonza, CC-3156) supplemented with 10% FBS and all components present in the bullet kit (Lonza, CC-4147) containing human recombinant FGF-B, human recombinant VEGF, human recombinant R3-IGF-1, ascorbic acid, human recombinant EGF and GA-1000 (Gentamicin sulfate-Amphotericin). 24 hours prior to the assay Hpmec were starved in EBM-2 medium containing 0.5% FBS instead of 10% FBS. For introduction in the angiogenesis assay, endothelial cells were washed 2 times with warm PBS, trypsinized and resuspended in serum free EBM-2 medium. For the angiogenesis assay, Matrigel (Fisher Scientific, Landsmeer, The Netherlands #11523550) was diluted 1:1 in serum-free EBM-2 medium and plated in a 96-well plate (50 μL). After polymerization, the cells were combined with the experimental peptide fragments and added on top of the Matrigel (100 μL). Pictures of the microvascular network were taken after 24 hours of incubation with a 4× objective and analysed using the plug-in angiogenesis analyser in ImageJ.

NOD mice = settings: cited from earlier work
[3] = tested on: human umbilical vein endothelial cells; settings: dose-dependent; cited from earlier work
[4] = tested on: streptozotocin-induced diabetic mice; settings: supplement using osmotic pumps; cited from earlier work
[5] = after 10 minutes, 50 mg/kg i.v.

Molecule: C[C@H](N)C(=O)N[C@@H](CCC(N)=O)C(=O)O [AQ, Alanyl-glutamine] (H-Ala-Gln-OH)
- autophagy-inhibition (mTOR): demonstrated

Molecule: OC[C@H]1O[C@@H](O[C@H]2[C@H](O)[C@@H](O)C(O)O[C@@H]2CO)[C@H](O)[C@@H](O)[C@H]1O (stereo partly drawn) [lactose]
- effect on CD4+-migratory effects of C-peptide (human CD4+ cells; preincubated 3 h with V14 peptide (10 μM) or lactose (10 mM), then C-peptide (1-31)): blunted

Molecule: ALPALP
- LPS-activity in vitro (LPS-activity): significantly inhibited

Molecule: AQGV
- LPS-activity in vitro (LPS-activity): significantly inhibited
- systemic release of IL-6 (TNF-α and IL-6): significantly (p<0.001) prevented
- systemic release of TNF-α (TNF-α and IL-6): significantly (p<0.001) prevented

Molecule: Ala-Gln-[1-^14C]Gly-Val [[^14C]-AQGV]
- average total recovery of radioactivity ([1]; 10 minutes after dose administration): 83.2%
- average total recovery of radioactivity ([1]; 30 minutes after dose administration): 70.5%
- average total recovery of radioactivity ([1]; 60 minutes after dose administration): 62.9%
- average total recovery of radioactivity ([1]; 6 hours after dose administration): 52.6%
- average total recovery of radioactivity ([1]; 24 hours after dose administration): 50.8%
- administered radioactivity excreted in feces ([1]; after 24 hours): 2.6%
- administered radioactivity excreted in urine ([1]; after 24 hours): 10.2%
- removal from the blood ([1]; after intravenous injections): rapidly removed
- radioactivity in the blood, amount present if all of the counts were in intact peptide ([1]; blood, 10 minutes after single intravenous dose of 50 mg/kg): 17.2 µg/g
- concentration of "peptide" (radioactivity) in kidneys [1, 5]: 362 µg/g
- concentration of "peptide" (radioactivity) in kidneys ([1]; after 24 hours, 50 mg/kg i.v.): 61.9 µg/g
- concentration of "peptide" (radioactivity) in liver [1, 5]: 105 µg/g
- concentration of "peptide" (radioactivity) in liver ([1]; after 24 hours, 50 mg/kg i.v.): 37.6 µg/g
- concentration of "peptide" (radioactivity) in lung ([1]; lung, after 10 minutes, 50 mg/kg i.v.): 75.2 µg/g
- time to full hydrolysis of the peptide after administration ([1]; mice): 15 min
- parent compound in plasma ([1]; plasma after 10 minutes, HPLC, 50 mg/kg i.v.): No parent compound could be detected
- concentration of "peptide" (radioactivity) in skin ([1]; skin, after 24 hours, 50 mg/kg i.v.): 37.5 µg/g
- concentration of "peptide" (radioactivity) in spleen [1, 5]: 74.7 µg/g
- concentration of "peptide" (radioactivity) in spleen ([1]; after 24 hours, 50 mg/kg i.v.): 39.3 µg/g
- concentration of "peptide" (radioactivity) in testis ([1]; testis, after 10 minutes, 50 mg/kg i.v.): 85.7 µg/g
- concentration of "peptide" (radioactivity) in thymus ([1]; thymus, after 24 hours, 50 mg/kg i.v.): 43.1 µg/g
- administered radioactivity exhaled as volatiles, most likely 14C-CO2 ([1]; up to 24 hours): About 50%
- parent compound in urine ([1]; urine, HPLC, 50 mg/kg i.v.): No parent compound was detected

Molecule: GAYPGAPGAYPGAPAPGV [18-meric peptide derived from the human N-terminal fragment of galectin-3]
- angiogenic (core) activity in sprouting assay [2]: have angiogenic core activities

Molecule: LAGV
- LPS-activity in vitro (LPS-activity): significantly inhibited
- systemic release of IL-6 (TNF-α and IL-6): significantly (p<0.001) prevented
- systemic release of TNF-α (TNF-α and IL-6): significantly (p<0.001) prevented

Molecule: LGGGPG
- angiogenic activities (total tube length) [2]: significantly induced angiogenic activities

Molecule: LOGA
- LPS-activity in vitro (LPS-activity): significantly inhibited

Molecule: LQAV
- LPS-activity in vitro (LPS-activity): significantly inhibited

Molecule: LQGV
- T1D-onset (NOD mice): significantly (p<0.0001) delay
- LPS-activity in vitro (LPS-activity): significantly inhibited
- systemic release of IL-6 (TNF-α and IL-6): significantly (p<0.001) prevented
- systemic release of TNF-α (TNF-α and IL-6): significantly (p<0.001) prevented

Molecule: PGAYPG
- angiogenic activities (total tube length) [2]: significantly induced angiogenic activities
- angiogenic (core) activity in sprouting assay [2]: have angiogenic core activities

Molecule: VAPALP
- LPS-activity in vitro (LPS-activity): significantly inhibited

Molecule: VGVAPG
- angiogenic activities (total tube length) [2]: significantly induced angiogenic activities
- angiogenic (core) activity in sprouting assay [2]: core-angiogenic activities have been demonstrated

Molecule: VGVAPGVGVAPGVGVAPG [18-meric peptide derived from human elastin]
- angiogenic (core) activity in sprouting assay [2]: core-angiogenic activities have been demonstrated

Molecule: VLAALP
- LPS-activity in vitro (LPS-activity): significantly inhibited

Molecule: VLPAAP
- LPS-activity in vitro (LPS-activity): significantly inhibited

Molecule: VLPALA
- LPS-activity in vitro (LPS-activity): significantly inhibited

Molecule: VLPALP
- T1D-onset (NOD mice): significantly (p<0.0001) delay
- LPS-activity in vitro (LPS-activity): significantly inhibited

Molecule: human C-peptide
- effect on CD4+ lymphocyte migration (human CD4+ cells; 10 nM, 3 h incubation): upregulating effect
- concentration of maximal effect on endothelial cell migration and tube formation [3]: 0.5 nM
- rate of skin wound closure [4]: significantly increased
